These results are taken from ChEMBL document CHEMBL1123283, “Quinazoline antifolates inhibiting thymidylate synthase: variation of the amino acid” (1986).

One assay deals with L1210. The assay is described as follows: Inhibitory dose for L1210 cells in culture. Not tested at higher concentrations because of their limited solubility. The class given is functional. Particulars: Mus musculus, read-out: ID50 (the source's name).
For assay [1], the target named is Thymidylate synthase (Mus musculus) (UniProt P07607).
Description: Inverse relative potency for the inhibition of L1210 thymidylate synthase

The structures appear in SMILES notation. Where only a bound is given, the exact number is not on record here.

Chain of Thymidylate synthase (Mus musculus) (P07607 whole entry, looked up): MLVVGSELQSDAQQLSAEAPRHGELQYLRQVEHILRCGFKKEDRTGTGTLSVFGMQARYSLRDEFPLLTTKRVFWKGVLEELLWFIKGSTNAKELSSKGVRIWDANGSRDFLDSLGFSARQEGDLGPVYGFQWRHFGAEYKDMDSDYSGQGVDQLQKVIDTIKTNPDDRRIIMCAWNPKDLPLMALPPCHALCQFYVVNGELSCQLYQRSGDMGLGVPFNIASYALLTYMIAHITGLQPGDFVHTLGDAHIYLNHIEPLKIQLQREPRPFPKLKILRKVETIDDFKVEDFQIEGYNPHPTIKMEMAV

On to `C#CCN(Cc1ccc2nc(N)nc(O)c2c1)c1ccc(C(=O)NC(CCC(=O)OCC)C(=O)OCC)cc1` (stereo not drawn), for which the IC50 in the assay on L1210 stood at 52 µM. In addition, in assay [1], the Potency is greater than 62.

As for `C#CCN(Cc1ccc2nc(N)nc(O)c2c1)c1ccc(C(=O)O)cc1`, the IC50 in the assay with L1210 is greater than 200 µM. In assay [1], this compound displayed a Potency of 84.

As to `C#CCN(Cc1ccc2nc(N)nc(O)c2c1)c1ccc(C(=O)NC(C)C(=O)O)cc1` (stereo not drawn), the IC50 with L1210 is greater than 10 µM. The compound further returned a Potency in assay [1] of 5.2.

Turning to `C#CCN(Cc1ccc2nc(N)nc(O)c2c1)c1ccc(CCCC(=O)O)cc1`, the IC50 with L1210 is greater than 10 µM. The Potency in assay [1] was determined as 333.

For the compound `C#CCN(Cc1ccc2nc(N)nc(O)c2c1)c1ccc(C(=O)NCC(=O)O)cc1`, the IC50 in the assay on L1210 was greater than 100 µM. Also, the Potency in assay [1] was determined as 20.7.

For the compound `C#CCN(Cc1ccc2[nH]c(N)nc(=O)c2c1)c1ccc(C(=O)NC(CCC(=O)O)C(=O)O)cc1` (stereo not drawn), in the assay on L1210, the IC50 amounted to 5 µM.

Consider `C#CCN(Cc1ccc2nc(N)nc(O)c2c1)c1ccc(C(=O)NC(CC(=O)O)C(=O)O)cc1` (stereo not drawn), for which, in the assay on L1210, the IC50 is greater than 137 µM. This compound also returned a Potency in assay [1] of 8.9.
